Measurements as given in PubChem BioAssay (NCI).
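Compound exposure: 48 hours, 5 concentrations, 96-well plates. The concentration for full growth arrest is given as TGI.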

Legend:
Test in all cases: growth of human tumour cells (NCI), 48 h
ACHN renal = tested on: ACHN renal
MDA-MB-435 = tested on: MDA-MB-435
MDA-N = tested on: MDA-N
786-0 renal = tested on: 786-0 renal
A549 NSCLC = tested on: A549 NSCLC
OVCAR-5 ovarian = tested on: OVCAR-5 ovarian
SK-OV-3 ovarian = tested on: SK-OV-3 ovarian
NCI/ADR-RES ovarian = tested on: NCI/ADR-RES ovarian
NCI-H226 lung = tested on: NCI-H226 lung
HCT-116 colon = tested on: HCT-116 colon
EKVX NSCLC = tested on: EKVX NSCLC
TK-10 renal = tested on: TK-10 renal
UO-31 renal = tested on: UO-31 renal
RPMI-8226 leukemia = tested on: RPMI-8226 leukemia
K-562 leukemia = tested on: K-562 leukemia
SK-MEL-2 melanoma = tested on: SK-MEL-2 melanoma
UACC-62 melanoma = tested on: UACC-62 melanoma
NCI-H522 lung = tested on: NCI-H522 lung
HS 578T breast = tested on: HS 578T breast

Measured: TGI

CCOc1cc(NC(C)=O)ccc1C(=O)NN1C(=O)C(Oc2ccccc2)C1c1ccc(O)c(OC)c1 (centres undefined)
51.6 µM: RPMI-8226 leukemia
> 100 µM: ACHN renal | MDA-MB-435 | MDA-N | 786-0 renal | A549 NSCLC | OVCAR-5 ovarian | SK-OV-3 ovarian | NCI/ADR-RES ovarian | NCI-H226 lung | HCT-116 colon | EKVX NSCLC | TK-10 renal | UO-31 renal | K-562 leukemia
81.2 µM: SK-MEL-2 melanoma

C=CCN1C(=O)/C(=C/c2ccccc2)NC1=S
> 100 µM: ACHN renal | MDA-MB-435 | 786-0 renal | A549 NSCLC | OVCAR-5 ovarian | SK-OV-3 ovarian | NCI/ADR-RES ovarian | NCI-H226 lung | HCT-116 colon | UACC-62 melanoma | NCI-H522 lung | EKVX NSCLC | TK-10 renal | UO-31 renal | RPMI-8226 leukemia | K-562 leukemia | HS 578T breast | SK-MEL-2 melanoma

COc1ccc2c(c1)OCc1c-2oc2ccccc2c1=O
> 100 µM: ACHN renal | MDA-MB-435 | MDA-N | 786-0 renal | A549 NSCLC | OVCAR-5 ovarian | SK-OV-3 ovarian | NCI/ADR-RES ovarian | NCI-H226 lung | HCT-116 colon | UACC-62 melanoma | NCI-H522 lung | EKVX NSCLC | TK-10 renal | UO-31 renal | RPMI-8226 leukemia | K-562 leukemia | SK-MEL-2 melanoma

COc1ccc(-c2c(C(C)=O)c(-c3ccccc3)n(C3OC(COC(C)=O)C(OC(C)=O)C(OC(C)=O)C3OC(C)=O)c(=S)c2C#N)cc1 (centres undefined)
> 100 µM: ACHN renal | MDA-MB-435 | MDA-N | 786-0 renal | A549 NSCLC | OVCAR-5 ovarian | SK-OV-3 ovarian | NCI/ADR-RES ovarian | NCI-H226 lung | HCT-116 colon | UACC-62 melanoma | NCI-H522 lung | EKVX NSCLC | TK-10 renal | K-562 leukemia

O=C1c2ccccc2S[C@@H](O)[C@@H]2CCCN12
> 100 µM: ACHN renal | 786-0 renal | A549 NSCLC | OVCAR-5 ovarian | SK-OV-3 ovarian | HCT-116 colon | UACC-62 melanoma | NCI-H522 lung | EKVX NSCLC | TK-10 renal | UO-31 renal | RPMI-8226 leukemia | K-562 leukemia | SK-MEL-2 melanoma

COC(=O)CCC(=O)NC1c2cccc3cccc(c23)Cn2c(=O)n(C)c(=O)n21 (centres undefined)
> 100 µM: ACHN renal | MDA-MB-435 | 786-0 renal | A549 NSCLC | OVCAR-5 ovarian | SK-OV-3 ovarian | NCI/ADR-RES ovarian | HCT-116 colon | UACC-62 melanoma | NCI-H522 lung | EKVX NSCLC | TK-10 renal | UO-31 renal | RPMI-8226 leukemia | K-562 leukemia | HS 578T breast | SK-MEL-2 melanoma

COc1ccc(OC)c2c1C(=O)C(Cl)=C(N1CCN(CCOCCO)CC1)C2=O
13.3 µM: 786-0 renal
29.9 µM: UO-31 renal
39 µM: A549 NSCLC
30.3 µM: ACHN renal
35.5 µM: EKVX NSCLC
37.3 µM: OVCAR-5 ovarian
26.5 µM: RPMI-8226 leukemia
17 µM: HCT-116 colon
33.4 µM: TK-10 renal
4.24 µM: K-562 leukemia
15.5 µM: UACC-62 melanoma
38.2 µM: HS 578T breast
20.9 µM: NCI-H522 lung
27.9 µM: MDA-MB-435
39.5 µM: NCI-H226 lung
34 µM: SK-OV-3 ovarian
59 µM: NCI/ADR-RES ovarian

N#[O+].O=S(=O)([O-])[O-].[NH2-].[NH2-].[NH2-].[NH2-].[NH2-].[Ru+5]
> 100 µM: ACHN renal | 786-0 renal | A549 NSCLC | OVCAR-5 ovarian | SK-OV-3 ovarian | NCI-H226 lung | HCT-116 colon | UACC-62 melanoma | NCI-H522 lung | EKVX NSCLC | TK-10 renal | SK-MEL-2 melanoma

Cc1cc(C)cc(Nc2nnc3n2S(=O)(=O)c2cc(C#N)c(Cl)cc2S3)c1
10.4 µM: MDA-MB-435
15.8 µM: HS 578T breast
26.1 µM: NCI-H226 lung
4.59 µM: NCI-H522 lung
32.9 µM: A549 NSCLC
6.37 µM: HCT-116 colon
9.55 µM: OVCAR-5 ovarian
21.2 µM: EKVX NSCLC
21.9 µM: SK-OV-3 ovarian
17 µM: UO-31 renal
19.5 µM: SK-MEL-2 melanoma
6.51 µM: NCI/ADR-RES ovarian
10.7 µM: ACHN renal
15.4 µM: UACC-62 melanoma
> 100 µM: 786-0 renal | K-562 leukemia

CCN(CC)Cc1cc(Nc2ccnc3ccc4c(nnn4C)c23)ccc1O
27 µM: MDA-N | A549 NSCLC
18.2 µM: HCT-116 colon
20.8 µM: 786-0 renal
8.38 µM: ACHN renal
42.1 µM: HS 578T breast
31.5 µM: SK-OV-3 ovarian
31.8 µM: SK-MEL-2 melanoma
33.9 µM: OVCAR-5 ovarian
30.9 µM: UACC-62 melanoma
23.6 µM: UO-31 renal
86 µM: NCI-H522 lung
76 µM: TK-10 renal
33 µM: K-562 leukemia
> 100 µM: EKVX NSCLC
52.7 µM: NCI/ADR-RES ovarian

Cc1oc2nc(N(C)C)nc(Cl)c2c1C
> 100 µM: ACHN renal | MDA-MB-435 | 786-0 renal | A549 NSCLC | OVCAR-5 ovarian | NCI/ADR-RES ovarian | NCI-H226 lung | HCT-116 colon | UACC-62 melanoma | NCI-H522 lung | EKVX NSCLC | TK-10 renal | UO-31 renal | RPMI-8226 leukemia | K-562 leukemia | HS 578T breast | SK-MEL-2 melanoma

O=C(c1ccccc1)c1c2ccccn2c2cccc[n+]12
> 100 µM: MDA-MB-435 | 786-0 renal | A549 NSCLC | OVCAR-5 ovarian | SK-OV-3 ovarian | NCI/ADR-RES ovarian | NCI-H226 lung | HCT-116 colon | UACC-62 melanoma | EKVX NSCLC | TK-10 renal | RPMI-8226 leukemia | K-562 leukemia | HS 578T breast | SK-MEL-2 melanoma

CCOC(=O)CC(NC(=O)c1nc[nH]c1[N+](=O)[O-])C(=O)OCC (centres undefined)
> 100 µM: ACHN renal | 786-0 renal | A549 NSCLC | SK-OV-3 ovarian | HCT-116 colon | UACC-62 melanoma | NCI-H522 lung | EKVX NSCLC | UO-31 renal | RPMI-8226 leukemia | K-562 leukemia | SK-MEL-2 melanoma
94.1 µM: TK-10 renal
72.5 µM: NCI-H226 lung

O=C(CC(=O)n1nc(-c2ccccc2)c(N=Nc2ccc(Cl)cc2)c1-c1ccccc1)Nc1cccc(Cl)c1
> 100 µM: ACHN renal | MDA-N | 786-0 renal | A549 NSCLC | OVCAR-5 ovarian | NCI-H226 lung | HCT-116 colon | UACC-62 melanoma | EKVX NSCLC | TK-10 renal | UO-31 renal | RPMI-8226 leukemia | K-562 leukemia | HS 578T breast | SK-MEL-2 melanoma

Cc1cc(O)c(/C=N/C(=S)NCCc2ccccc2)c(=O)o1
> 100 µM: ACHN renal | MDA-MB-435 | MDA-N | 786-0 renal | A549 NSCLC | OVCAR-5 ovarian | SK-OV-3 ovarian | NCI/ADR-RES ovarian | NCI-H226 lung | HCT-116 colon | EKVX NSCLC | TK-10 renal | UO-31 renal | SK-MEL-2 melanoma
